Measurements as given in ChEMBL document CHEMBL5500423, “More than an Amide Bioisostere: Discovery of 1,2,4-Triazole-containing Pyrazolo[1,5-a]pyrimidine Host CSNK2 Inhibitors for Combatting β-Coronavirus Replication” (J Med Chem, 2024).
The source made the active and inactive calls. No cut-off for these calls is given here.

What was measured:
[1] = biological target: T1, Casein kinase II subunit alpha' (Homo sapiens, UniProt P19784); assay: Inhibition of human CSNK2A2 expressed in HEK293 cells incubated for 2 hrs by NanoBRET assay; type: cell-based
Target sequence in this assay (P19784 whole entry, canonical isoform): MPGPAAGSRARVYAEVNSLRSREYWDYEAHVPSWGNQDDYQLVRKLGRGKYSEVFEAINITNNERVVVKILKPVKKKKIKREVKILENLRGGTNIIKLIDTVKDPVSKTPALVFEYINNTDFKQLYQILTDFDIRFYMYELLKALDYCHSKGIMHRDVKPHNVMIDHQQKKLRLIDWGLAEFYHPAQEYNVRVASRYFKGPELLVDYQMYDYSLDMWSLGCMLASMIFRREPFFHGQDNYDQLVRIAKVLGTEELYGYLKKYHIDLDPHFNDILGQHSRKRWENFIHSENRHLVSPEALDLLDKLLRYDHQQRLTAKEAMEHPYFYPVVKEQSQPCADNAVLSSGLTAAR

[2] = biological target: Phosphorylase b kinase gamma catalytic chain, skeletal muscle/heart isoform (Homo sapiens, UniProt Q16816); assay: Inhibition of human PHKG1 expressed in HEK293 cells incubated for 2 hrs by NanoBRET assay; type: cell-based
[3] = biological target: Dual specificity protein kinase CLK2 (Homo sapiens, UniProt P49760); assay: Inhibition of human CLK2 expressed in HEK293 cells incubated for 2 hrs by NanoBRET assay; type: cell-based
Murine hepatitis virus = assay: Antiviral activity against Murine hepatitis virus infected in mouse DBT cells preincubated with cells for 1 hrs followed by viral infection and measured after 10 hrs by luminometer; type: functional, organism-based; conditions: Murine coronavirus
[4] = biological target: Death-associated protein kinase 2 (Homo sapiens, UniProt Q9UIK4); assay: Inhibition of human DAPK2 expressed in HEK293 cells incubated for 2 hrs by NanoBRET assay; type: cell-based
[5] = biological target: Dual specificity protein kinase CLK1 (Homo sapiens, UniProt P49759); assay: Inhibition of human CLK1 expressed in HEK293 cells incubated for 2 hrs by NanoBRET assay; type: cell-based
[6] = Apparent permeability from apical to basolateral side in MDCK-MDR1 cells at 1 uM incubated for 2 hrs by fluorescence plate reader analysis; type: ADME, cell-based, Canis lupus familiaris; conditions: dog, mdck-mdr1, 2 h
[7] = biological target: T1, Casein kinase II subunit alpha'; assay: Inhibition of CSNK2A2 (unknown origin) in presence of ATP by Eurofins radiometric enzymatic assay
Target sequence in this assay (P19784 whole entry, canonical isoform): as above

[8] = biological target: T1, Casein kinase II subunit alpha'; assay: Inhibition of NLuc-fused CSNK2A2 (unknown origin) expressed in digitonin-permeabilized HEK293 cells incubated for 25 mins by NanoBRET assay; type: cell-based
[9] = biological target: Dual specificity tyrosine-phosphorylation-regulated kinase 1A (Homo sapiens) (UniProt Q13627); assay: Binding affinity to human DYRK1A expressed in HEK293 cells assessed as target occupancy upto 3 uM incubated for 2 hrs by NanoBRET assay; type: cell-based
[10] = Apparent permeability from basolateral to apical side in MDCK-MDR1 cells at 1 uM incubated for 2 hrs by fluorescence plate reader analysis; type: ADME, cell-based, Canis lupus familiaris; conditions: dog, mdck-mdr1, 2 h
[11] = biological target: T1, Casein kinase II subunit alpha'; assay: Inhibition of NLuc-fused CSNK2A2 (unknown origin) expressed in HEK293 cells incubated for 2 hrs by NanoBRET assay; type: cell-based
Target sequence in this assay (P19784 whole entry, canonical isoform): as above

[12] = biological target: T2, Homeodomain-interacting protein kinase 4 (Homo sapiens, UniProt Q8NE63); assay: Inhibition of human HIPK4 expressed in HEK293 cells incubated for 2 hrs by NanoBRET assay; type: cell-based
T2 sequence (Q8NE63 whole entry): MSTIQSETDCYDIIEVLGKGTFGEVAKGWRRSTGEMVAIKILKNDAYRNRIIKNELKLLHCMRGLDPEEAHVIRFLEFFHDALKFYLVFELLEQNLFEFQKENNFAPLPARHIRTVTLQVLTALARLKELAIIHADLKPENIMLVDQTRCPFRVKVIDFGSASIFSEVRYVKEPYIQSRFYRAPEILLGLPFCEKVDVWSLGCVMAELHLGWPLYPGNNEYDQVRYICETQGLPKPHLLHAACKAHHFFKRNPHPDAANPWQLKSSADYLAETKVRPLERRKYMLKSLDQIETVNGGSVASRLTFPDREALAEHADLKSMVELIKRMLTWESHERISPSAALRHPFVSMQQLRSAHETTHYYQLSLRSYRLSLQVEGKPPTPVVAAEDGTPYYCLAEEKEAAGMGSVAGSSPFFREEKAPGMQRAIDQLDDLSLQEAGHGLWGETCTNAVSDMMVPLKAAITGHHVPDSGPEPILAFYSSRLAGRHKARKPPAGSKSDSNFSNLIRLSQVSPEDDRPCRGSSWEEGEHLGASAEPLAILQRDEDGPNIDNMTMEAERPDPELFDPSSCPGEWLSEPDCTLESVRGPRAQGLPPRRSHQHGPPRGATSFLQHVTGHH

[13] = Cytotoxicity against human A549-ACE2 cells assessed as reduction in cell viability at >10 uM pretreated for 1 hrs followed by mock infection for 2 hrs and replacement with fresh medium containing compound and measured 48 hrs post mock-infection by LDH assay; type: toxicity, cell-based; conditions: a549-ace2, 49 h
[14] = biological target: Dual specificity protein kinase CLK4 (Homo sapiens, UniProt Q9HAZ1); assay: Inhibition of human CLK4 expressed in HEK293 cells incubated for 2 hrs by NanoBRET assay; type: cell-based
[15] = Intrinsic clearance in male CD-1 mouse at 3 mg/kg, iv measured after 5 hrs by LC-MS/MS analysis; type: ADME, organism-based; conditions: in vivo
[16] = biological target: Casein kinase II subunit alpha (Homo sapiens, UniProt P68400); assay: Inhibition of CSNK2A1 (unknown origin) in presence of ATP by Eurofins radiometric enzymatic assay
[17] = biological target: Casein kinase 2 (Homo sapiens) (UniProt P67870+P68400+P19784+Q8NEV1); assay: Inhibition of CSNK2 downstream signaling in human A549-ACE2 cells assessed as reduction in EIF2S2 phosphorylation at 1 to 5 uM measured after 24 hrs by Western blot analysis; type: cell-based; conditions: dose 1-5 µM
[18] = biological target: Cyclin-dependent kinase 7 (Homo sapiens, UniProt P50613); assay: Inhibition of human CDK7 expressed in HEK293 cells incubated for 2 hrs by NanoBRET assay; type: cell-based
[19] = Kinetic solubility of compound in PBS at pH 7.4 incubated for 24 hrs by HPLC analysis; type: physicochemical; conditions: buffer, pH 7.4, 24 h
[20] = Cytotoxicity against human A549-ACE2 cells assessed as cell viability at 1 uM incubated for 48 hrs by CellTiter-Glo2 assay relative to control; type: toxicity, cell-based; conditions: a549-ace2, 48 h
[21] = Cytotoxicity against human A549-ACE2 cells assessed as cell viability at 0.1 uM incubated for 48 hrs by CellTiter-Glo2 assay relative to control; type: toxicity, cell-based; conditions: a549-ace2, 48 h

Dual specificity protein kinase CLK4, sequence (Q9HAZ1 whole entry): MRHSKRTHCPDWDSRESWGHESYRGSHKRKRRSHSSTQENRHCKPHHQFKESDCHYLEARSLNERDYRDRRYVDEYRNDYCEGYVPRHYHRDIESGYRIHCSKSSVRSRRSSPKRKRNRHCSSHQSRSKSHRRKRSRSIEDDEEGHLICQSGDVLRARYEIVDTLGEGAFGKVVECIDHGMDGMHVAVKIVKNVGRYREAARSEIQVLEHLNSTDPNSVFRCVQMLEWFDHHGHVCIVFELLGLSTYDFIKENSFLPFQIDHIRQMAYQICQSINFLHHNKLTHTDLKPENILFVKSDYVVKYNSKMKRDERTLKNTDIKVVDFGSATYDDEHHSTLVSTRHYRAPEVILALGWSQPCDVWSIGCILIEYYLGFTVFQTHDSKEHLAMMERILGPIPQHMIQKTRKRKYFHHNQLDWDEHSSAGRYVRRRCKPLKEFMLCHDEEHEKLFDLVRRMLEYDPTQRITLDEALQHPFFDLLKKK
Cyclin-dependent kinase 7, sequence (P50613 whole entry): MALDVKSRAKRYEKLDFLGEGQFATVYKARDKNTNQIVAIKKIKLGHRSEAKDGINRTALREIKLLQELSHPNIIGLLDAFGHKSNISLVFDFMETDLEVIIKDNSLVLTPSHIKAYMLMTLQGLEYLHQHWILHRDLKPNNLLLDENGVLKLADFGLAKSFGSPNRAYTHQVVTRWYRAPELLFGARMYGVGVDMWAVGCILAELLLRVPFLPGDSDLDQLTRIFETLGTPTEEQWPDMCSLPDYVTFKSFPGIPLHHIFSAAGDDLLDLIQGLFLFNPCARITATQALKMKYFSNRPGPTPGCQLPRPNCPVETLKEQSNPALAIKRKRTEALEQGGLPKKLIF
Dual specificity protein kinase CLK1, sequence (P49759 whole entry): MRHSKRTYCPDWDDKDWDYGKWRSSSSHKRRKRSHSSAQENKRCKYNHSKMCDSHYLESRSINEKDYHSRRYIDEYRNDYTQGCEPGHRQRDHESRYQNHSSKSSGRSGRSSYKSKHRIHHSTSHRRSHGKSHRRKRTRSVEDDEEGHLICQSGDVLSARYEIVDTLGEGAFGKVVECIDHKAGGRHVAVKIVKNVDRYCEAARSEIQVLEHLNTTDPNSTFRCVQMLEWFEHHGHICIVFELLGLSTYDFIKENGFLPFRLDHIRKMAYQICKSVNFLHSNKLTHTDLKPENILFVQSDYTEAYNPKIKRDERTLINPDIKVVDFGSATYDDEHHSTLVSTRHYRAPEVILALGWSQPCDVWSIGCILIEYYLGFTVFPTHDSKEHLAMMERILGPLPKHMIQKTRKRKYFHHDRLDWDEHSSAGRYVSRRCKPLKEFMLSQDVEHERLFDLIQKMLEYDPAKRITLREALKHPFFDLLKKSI
Death-associated protein kinase 2, sequence (Q9UIK4 whole entry): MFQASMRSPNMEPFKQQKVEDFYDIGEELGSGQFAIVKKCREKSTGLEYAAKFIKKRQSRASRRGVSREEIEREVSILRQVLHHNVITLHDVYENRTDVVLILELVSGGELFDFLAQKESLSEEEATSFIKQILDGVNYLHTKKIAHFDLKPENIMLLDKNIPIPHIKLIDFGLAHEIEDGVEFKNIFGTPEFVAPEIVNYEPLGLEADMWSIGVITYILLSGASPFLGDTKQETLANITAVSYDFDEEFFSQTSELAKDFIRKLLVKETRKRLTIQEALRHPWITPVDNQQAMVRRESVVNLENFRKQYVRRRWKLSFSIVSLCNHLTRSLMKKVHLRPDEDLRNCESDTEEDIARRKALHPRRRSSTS
Casein kinase II subunit alpha, sequence (P68400 whole entry): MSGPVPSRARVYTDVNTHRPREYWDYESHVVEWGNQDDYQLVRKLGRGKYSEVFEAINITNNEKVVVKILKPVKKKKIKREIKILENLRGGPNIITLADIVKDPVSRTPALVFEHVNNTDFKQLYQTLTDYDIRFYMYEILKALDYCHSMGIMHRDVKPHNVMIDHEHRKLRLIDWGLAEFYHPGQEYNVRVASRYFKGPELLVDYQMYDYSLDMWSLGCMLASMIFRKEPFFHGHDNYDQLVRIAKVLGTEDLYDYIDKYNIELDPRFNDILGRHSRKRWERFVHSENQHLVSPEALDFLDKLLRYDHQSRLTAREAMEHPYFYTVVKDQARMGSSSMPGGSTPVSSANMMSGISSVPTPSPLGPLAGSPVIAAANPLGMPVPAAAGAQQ
Phosphorylase b kinase gamma catalytic chain, skeletal muscle/heart isoform, sequence (Q16816 whole entry, canonical isoform): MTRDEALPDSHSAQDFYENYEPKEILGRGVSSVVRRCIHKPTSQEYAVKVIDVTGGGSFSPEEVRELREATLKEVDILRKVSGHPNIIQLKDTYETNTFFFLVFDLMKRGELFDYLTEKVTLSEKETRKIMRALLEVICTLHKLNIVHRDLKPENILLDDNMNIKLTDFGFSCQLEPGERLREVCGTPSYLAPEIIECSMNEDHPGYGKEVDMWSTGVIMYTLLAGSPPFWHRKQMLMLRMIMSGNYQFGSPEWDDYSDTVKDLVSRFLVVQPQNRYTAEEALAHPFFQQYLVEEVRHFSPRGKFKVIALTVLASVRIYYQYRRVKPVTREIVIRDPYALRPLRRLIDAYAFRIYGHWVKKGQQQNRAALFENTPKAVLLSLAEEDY
Dual specificity protein kinase CLK2, sequence (P49760 whole entry): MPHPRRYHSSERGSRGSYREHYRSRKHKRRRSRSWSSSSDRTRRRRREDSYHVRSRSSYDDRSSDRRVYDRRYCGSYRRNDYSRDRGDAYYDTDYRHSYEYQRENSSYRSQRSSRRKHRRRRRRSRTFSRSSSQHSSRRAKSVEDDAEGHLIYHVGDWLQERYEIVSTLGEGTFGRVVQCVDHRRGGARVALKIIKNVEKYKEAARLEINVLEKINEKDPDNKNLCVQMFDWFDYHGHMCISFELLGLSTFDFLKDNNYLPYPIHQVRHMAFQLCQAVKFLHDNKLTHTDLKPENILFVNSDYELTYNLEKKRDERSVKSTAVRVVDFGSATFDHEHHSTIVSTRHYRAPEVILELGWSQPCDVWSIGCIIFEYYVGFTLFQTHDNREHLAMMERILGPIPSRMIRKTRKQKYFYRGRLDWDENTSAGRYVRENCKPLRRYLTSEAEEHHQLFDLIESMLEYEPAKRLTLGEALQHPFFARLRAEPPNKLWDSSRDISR

Compound | IC50 (Murine hepatitis virus) | IC50 [11] | Kinetic_solubility [19] | Activity [20] | Activity [21] | also measured
CCN(CCN)c1ccc(Nc2cc(NC3CC3)n3ncc(C#N)c3n2)cc1-n1cnnc1 | 200 nM | 316 nM | – | – | – | IC50 [1]: 316 nM; IC50 [2]: 6310 nM; IC50 [3]: 3160 nM; IC50 [4]: 2510 nM; IC50 [5]: 5010 nM; Papp [6]: 0.16 10^-6 cm/s; IC50 [7]: 0.66 nM; IC50 [8]: 80 nM; inhibition [8]: Dose-Dependent Effect; Activity [9]: inactive; Papp [10]: 0.36 10^-6 cm/s; IC50 [12]: 25100 nM; Activity [13]: Non-Toxic; IC50 [14]: 2510 nM; CL [15]: 86 mL/min/kg; IC50 [16]: 1.7 nM; inhibition [17]: Active; IC50 [18]: 15800 nM
CN(CCO)c1ccc(Nc2cc(NC3CC3)n3ncc(C#N)c3n2)cc1-n1cnnc1 | 200 nM | 126 nM | 38 µg/mL | 97% | 95% | –
N#Cc1cnn2c(NC3CC3)cc(Nc3ccnc(-n4cnnc4)c3)nc12 | 63.1 nM | 10 nM | 0.27 µg/mL | 98% | 99% | –
C[C@@H](N)CN(C)c1ccc(Nc2cc(NC3CC3)n3ncc(C#N)c3n2)cc1-n1cnnc1 | 501 nM | 251 nM | 62 µg/mL | 91% | 95% | –
CCN(CC)CCN(C)c1ccc(Nc2cc(NC3CC3)n3ncc(C#N)c3n2)cc1-n1cnnc1 | 794 nM | 100 nM | 60 µg/mL | 100% | 98% | –
